Test results as given in article PMC7991740, “Introduction of Non-natural Amino Acids Into T-Cell Epitopes to Mitigate Peptide-Specific T-Cell Responses” (Frontiers in Immunology, 2021).

Assays:
Assay in all cases: biochemical
Format in all cases: binding
HLA-DRB1*01:01 = biological target: T1, HLA-DRB1*01:01 (Homo sapiens, UniProt P01903+P01911, A100R/D57E/F55L/F60I/F76Y/I96L/L162R/M171V/P40L/Q125E/R42F/V115G/Y59C); conditions: […]; mean of at least two independent experiments; read-out: IC50 DRB1*0101
T1 construct: Human leukocyte antigen-DR molecules were immunopurified from homozygous EBV B lymphoblastoid cells; endogenous in cells

HLA-DRB1*04:01 = biological target: T2, HLA-DRB1*04:01 (Homo sapiens, UniProt P01903+P01911, A100K/A169T/F76Y/I96L/K127E/L162R/M171V/N62H/P40V/Q125Y/R42H/S133A/S149N/S66Y/V115G/V209L/W38E); conditions: […]; mean of at least two independent experiments; read-out: IC50 DRB1*0401
T2 construct: Human leukocyte antigen-DR molecules were immunopurified from homozygous EBV B lymphoblastoid cells; endogenous in cells

HLA-DRB1*07:01 = HLA-DRB1*07:01 (Homo sapiens, UniProt P01903+P01911, A100R/A102G/A103Q/D57E/D86V/E43K/F76Y/K127E/L162R/M171V/P40G/Q125H/Q99D/R33Q/R42Y/R54Q/S133A/S66F/T210M/V115G/Y107V/Y59L/Y89S); conditions: […]; mean of at least two independent experiments; read-out: IC50 DRB1*0701 (converted)
HLA-DRB1*11:01 = HLA-DRB1*11:01 (Homo sapiens, UniProt P01903+P01911, A100R/A169T/A87E/I96F/K41T/L162R/M171V/P40S/Q125H/Q178H/Q39Y/Q99D/R42S/S66Y/T262R/V115G/W38E); conditions: […]; mean of at least two independent experiments; read-out: IC50 DRB1*1101 (converted)
HLA-DRB5*01:01 = biological target: T3, HLA-DRB5*01:01 (Homo sapiens, UniProt P01903+Q30154); conditions: […]; mean of at least two independent experiments; read-out: IC50 DRB5*0101
T3 construct: Human leukocyte antigen-DR molecules were immunopurified from homozygous EBV B lymphoblastoid cells; endogenous in cells

HLA-DRB1*11:01, sequence (P01903 26-254 limits assumed, other chains not shown): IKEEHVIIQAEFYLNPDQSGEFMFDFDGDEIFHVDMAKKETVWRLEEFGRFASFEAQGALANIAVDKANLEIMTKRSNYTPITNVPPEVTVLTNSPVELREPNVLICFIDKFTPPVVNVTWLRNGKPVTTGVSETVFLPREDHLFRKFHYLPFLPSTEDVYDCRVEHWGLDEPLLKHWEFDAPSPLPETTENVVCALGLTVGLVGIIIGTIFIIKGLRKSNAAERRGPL

Row | Structure (SMILES) | IC50 (HLA-DRB1*01:01) [nM] | IC50 (HLA-DRB1*04:01) [nM] | IC50 (HLA-DRB1*07:01) [nM] | IC50 (HLA-DRB1*11:01) [nM] | IC50 (HLA-DRB5*01:01) [nM]
1 | CC(C)C[C@H](NC(=O)[C@H](CCCCN)NC(=O)[C@H](CC(C)C)NC(=O)[C@@H](NC(=O)[C@H](CC(N)=O)NC(=O)[C@H](CCC(N)=O)NC(=O)[C@H](CCCCN)NC(=O)[C@@H](NC(=O)[C@H](Cc1ccc(O)cc1)NC(=O)[C@H](CCCCN)NC(=O)[C@@H]1CCCN1)C(C)C)[C@@H](C)O)C(=O)N[C@@H](C)C(=O)NC(C)(C)C(=O)O [Aib13] | 0.2 | 6 | 6 | 8 | 2
2 | CC(C)C[C@H](NC(=O)[C@@H](NC(=O)[C@H](CC(N)=O)NC(=O)[C@H](CCC(N)=O)NC(=O)[C@H](CCCCN)NC(=O)[C@@H](NC(=O)[C@H](Cc1ccc(O)cc1)NC(=O)[C@H](CCCCN)NC(=O)[C@@H]1CCCN1)C(C)C)[C@@H](C)O)C(=O)N[C@@H](CCCCN)C(=O)N[C@@H](CC(C)C)C(=O)N(C)CC(=O)N[C@H](C(=O)O)[C@@H](C)O [Pep12] | 0.3 | 4 | 10 | 14 | 3
